Source: patent publication US20080045504A1, “Benzonitrile Derivatives to Treat Musculoskeletal Frailty” (PFIZER PRODUCTS INC., priority 2004, published 2008)

molecular target: T1, recombinant human androgen receptor (hAR) (Homo sapiens, UniProt P10275); assay: Human androgen receptor binding analysis (3H-DHT competitive binding)
T1 construct: made in house; host or cells: baculovirus/Sf9 insect cells (crude extract)
T1 sequence (P10275 1-920): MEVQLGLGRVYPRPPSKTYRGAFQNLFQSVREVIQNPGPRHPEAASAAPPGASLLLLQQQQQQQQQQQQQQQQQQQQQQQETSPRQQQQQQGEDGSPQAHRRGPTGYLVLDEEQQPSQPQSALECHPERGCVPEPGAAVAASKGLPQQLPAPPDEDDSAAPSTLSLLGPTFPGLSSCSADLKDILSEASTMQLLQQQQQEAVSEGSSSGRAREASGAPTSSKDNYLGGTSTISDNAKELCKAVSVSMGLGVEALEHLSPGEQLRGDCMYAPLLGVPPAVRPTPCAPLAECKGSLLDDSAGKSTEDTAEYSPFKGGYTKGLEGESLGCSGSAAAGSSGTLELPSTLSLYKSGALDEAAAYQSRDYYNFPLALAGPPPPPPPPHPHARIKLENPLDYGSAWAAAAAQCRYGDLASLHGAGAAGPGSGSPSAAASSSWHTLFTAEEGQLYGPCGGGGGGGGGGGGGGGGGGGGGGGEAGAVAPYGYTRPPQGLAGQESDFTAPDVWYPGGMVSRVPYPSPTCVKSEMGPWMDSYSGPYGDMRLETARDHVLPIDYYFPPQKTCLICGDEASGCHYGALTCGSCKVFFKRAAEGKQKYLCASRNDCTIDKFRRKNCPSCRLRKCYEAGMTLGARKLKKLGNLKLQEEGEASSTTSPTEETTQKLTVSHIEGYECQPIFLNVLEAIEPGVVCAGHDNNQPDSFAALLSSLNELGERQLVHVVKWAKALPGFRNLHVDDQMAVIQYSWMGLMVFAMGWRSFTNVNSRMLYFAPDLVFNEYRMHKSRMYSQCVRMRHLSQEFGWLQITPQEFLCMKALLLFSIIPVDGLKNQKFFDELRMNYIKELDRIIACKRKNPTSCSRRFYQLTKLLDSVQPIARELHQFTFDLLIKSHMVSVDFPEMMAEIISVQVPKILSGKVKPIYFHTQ
Description: The following is a brief description of the assay that determines the affinity of a compound for the recombinant human androgen receptor (hAR). Competitive binding analysis is performed on baculovirus/Sf9 generated hAR extracts in the presence or absence of differing concentrations of drug and a fixed concentration of ^3H-dihydrotestosterone (^3H-DHT) as tracer. This binding assay method is a modification of a protocol previously described (Chang, et. al. J. Steroid Biochem. 20(1):11-17 1984). Briefly, progressively decreasing concentrations of compounds are incubated in the presence of hAR extract (Chang et al. P.N.A.S. Vol. 89, pp. 5546-5950, 1992), hydroxylapatite and 1 nM ^3H-DHT for one hour at 4° C. Subsequently, the binding reactions are washed three times to completely remove excess unbound ^3H-DHT. hAR bound ^3H-DHT levels are determined in the presence of compounds (=competitive binding) and compared to levels bound when no competitor is present (=maximum binding). Compound binding affinity to the hAR is expressed as the concentration of compound at which one half of the maximum binding is inhibited (the IC50).

| SMILES | IC50 [nM] |
| --- | --- |
| CC[C@H]1CCCCN1c1cc(F)c(C#N)c(F)c1 [Example 2, 4-(2-(S)-Ethyl-piperidin-1-yl)-2,6-difluoro-benzonitrile] | 1.15 |
| CC[C@H]1CCCCN1c1ccc(C#N)c(Cl)c1 [Example 3, 2-Chloro-4-(2-(S)-ethyl-piperidin-1-yl)-benzonitrile] | 3.67 |
| CC[C@H]1CCCCN1c1ccc(C#N)c(C#N)c1 [Example 4, 4-(2-(S)-Ethyl-piperidin-1-yl)-phthalonitrile] | 7.75 |
| CCC1CCCCN1c1ccc(C#N)c(C#N)c1 (centres unmarked) [Example 5, 4-(2-Ethyl-piperidin-1-yl)-phthalonitrile] | 5.35 |
| CCC1CCCCN1c1ccc(C#N)c(C(F)(F)F)c1 (centres unmarked) [Example 6, 4-(2-Ethyl-piperidin-1-yl)-2-trifluoromethyl-benzonitrile] | 1.83 |
| CC[C@@H](C)N(CC)c1ccc(C#N)c(Cl)c1 [Example 8, 4-((R)-sec-Butyl-ethyl-amino)-2-chloro-benzonitrile] | 1.4 |
| CC[C@@H](C)N(C)c1ccc(C#N)c(Cl)c1 [Example 9, 4-((R)-sec-Butyl-methyl-amino)-2-chloro-benzonitrile] | 3.63 |
| CCCN(c1ccc(C#N)c(Cl)c1)[C@H](C)CC [Example 10, 4-((R)-sec-Butyl-propyl-amino)-2-chloro-benzonitrile] | 3.28 |
| CCCN(c1ccc(C#N)c(C#N)c1)[C@H](C)CC [Example 11, 4-((R)-sec-Butyl-propyl-amino)-phthalonitrile] | 8 |
| CC[C@@H](C)N(CC)c1ccc(C#N)c(C(F)(F)F)c1 [Example 12, 4-((R)-sec-Butyl-ethyl-amino)-2-trifluoromethyl-benzonitrile] | 3.21 |
| CC[C@@H](C)N(C)c1ccc(C#N)c(C#N)c1 [Example 13, 4-((R)-sec-Butyl-methyl-amino)-phthalonitrile] | 2.9 |
| CC[C@@H](C)N(CC)c1ccc(C#N)c(C#N)c1 [Example 14] | 3.8 |
| CCCN(CCC)c1ccc(C#N)c(C(F)(F)F)c1 [Example 15, 4-Dipropylamino-2-trifluoromethyl-benzonitrile] | 1.68 |
| CCN(c1ccc(C#N)c(C#N)c1)C(C)C [Example 16, 4-(Ethyl-isopropyl-amino)-phthalonitrile] | 3.06 |
| CCC(C)N(C)c1ccc(C#N)c(C(F)(F)F)c1 (centres unmarked) [Example 17, 4-(sec-Butyl-methyl-amino)-2-trifluoromethyl-benzonitrile] | 3.99 |
| CCCN(c1ccc(C#N)c(C#N)c1)C(C)CC (centres unmarked) [Example 18, 4-(sec-Butyl-propyl-amino)-phthalonitrile] | 2.49 |
| CCCN(CCC)c1ccc(C#N)c(C#N)c1 [Example 19, 4-Dipropylamino-phthalonitrile] | 6.44 |
| CCN(CC)c1ccc(C#N)c(C(F)(F)F)c1 [Example 20, 4-Diethylamino-2-trifluoromethyl-benzonitrile] | 2.62 |
| CCC(C)N(CC)c1ccc(C#N)c(C(F)(F)F)c1 (centres unmarked) [Example 21, 4-(sec-Butyl-ethyl-amino)-2-trifluoromethyl-benzonitrile] | 1.71 |
| CCCN(CC)c1ccc(C#N)c(Cl)c1 [Example 22, 2-Chloro-4-(ethyl-propyl-amino)-benzonitrile] | 5.4 |
| CC(C)N(C)c1ccc(C#N)c(Cl)c1 [Example 23, 2-Chloro-4-(isopropyl-methyl-amino)-benzonitrile] | 4.21 |
| CC(C)[C@@H](C)N(C)c1ccc(C#N)c(Cl)c1 [Example 25, 2-Chloro-4-[(1-(R), 2-dimethyl-propyl)-methyl-amino]-benzonitrile] | 45.6 |
| CC[C@H](C)N(C)c1ccc(C#N)c(C(F)(F)F)c1 [Example 26] | 5.47 |
| CC[C@H](C)N(CC)c1ccc(C#N)c(C(F)(F)F)c1 [Example 27, 4-((S)-sec-Butyl-ethyl-amino)-2-trifluoromethyl-benzonitrile] | 7.32 |

| SMILES | IC50 [nM] |
| --- | --- |
| CC1CCCN1c1ccc(C#N)c(C(F)(F)F)c1 (centres unmarked) [Example 28, 4-(2-Methyl-pyrrolidin-1-yl)-2-trifluoromethyl-benzonitrile] | 1.5 |
| CCCC1CCCCN1c1ccc(C#N)c(C(F)(F)F)c1 (centres unmarked) [Example 30, 4-(2-Propyl-piperidin-1-yl)-2-trifluoromethyl-benzonitrile] | 2.33 |
| CCC1CC(CO)CCN1c1ccc(C#N)c(C(F)(F)F)c1 (centres unmarked) [Example 31, 4-(2-Ethyl-4-hydroxymethyl-piperidin-1-yl)-2-trifluoromethyl-benzonitrile] | 9.63 |
| CCCN(c1ccc(C#N)c(C(F)(F)F)c1)[C@H](C)CC [Example 32, 4-((R)-sec-Butyl-propyl-amino)-2-trifluoromethyl-benzonitrile] | 5.97 |
| C=CCN(C)c1ccc(C#N)c(C(F)(F)F)c1 [Example 33, 4-(Allyl-methyl-amino)-2-trifluoromethyl-benzonitrile] | 3.82 |
| CC1CCCCN1c1ccc(C#N)c(C(F)(F)F)c1 (centres unmarked) [Example 34, 4-(2-Methyl-piperidin-1-yl)-2-trifluoromethyl-benzonitrile] | 24.8 |
| CCOC[C@H]1CCCN1c1ccc(C#N)c(C(F)(F)F)c1 [Example 35, 4-(2(R)-(Ethoxy-methyl)-pyrrolidin-1-yl)-2-trifluoromethyl-benzonitrile] | 2.07 |
| N#Cc1ccc(N2CCCCC2CCO)cc1C(F)(F)F (centres unmarked) [Example 36, 4-(2-(2-Hydroxyethyl)-piperidin-1-yl)-2-trifluoromethyl-benzonitrile] | 27.7 |
| COC[C@H]1CCCN1c1ccc(C#N)c(C(F)(F)F)c1 [Example 37, 4-(2(R)-(Methoxy-methyl)-pyrrolidin-1-yl)-2-trifluoromethyl-benzonitrile] | 10.1 |
| CCCCCN(CC)c1ccc(C#N)c(C(F)(F)F)c1 [Example 38, 4-(Ethyl-pentyl-amino)-2-trifluoromethyl-benzonitrile] | 11.6 |
| CCCCN(CCC)c1ccc(C#N)c(C(F)(F)F)c1 [Example 39, 4-(Butyl-propyl-amino)-2-trifluoromethyl-benzonitrile] | 2 |
| CC(C)N(C)c1ccc(C#N)c(C(F)(F)F)c1 [Example 40, 4-(Isopropyl-methyl-amino)-2-trifluoromethyl-benzonitrile] | 0.99 |
| CCCCCN(CCC)c1ccc(C#N)c(C(F)(F)F)c1 [Example 41, 4-(Pentyl-propyl-amino)-2-trifluoromethyl-benzonitrile] | 9.39 |
| N#Cc1ccc(N2CCCCC2CO)cc1C(F)(F)F (centres unmarked) [Example 42, 4-(2-Hydroxymethyl-piperidin-1-yl)-2-trifluoromethyl-benzonitrile] | 15.3 |
| CCCCN(CC)c1ccc(C#N)c(C(F)(F)F)c1 [Example 43, 4-(Butyl-ethyl-amino)-2-trifluoromethyl-benzonitrile] | 7.58 |
| CCCCN(CCCC)c1ccc(C#N)c(C(F)(F)F)c1 [Example 44, 4-(Dibutyl-amino)-2-trifluoromethyl-benzonitrile] | 12.8 |
| N#Cc1ccc(N2CCC[C@@H]2CO)cc1C(F)(F)F [Example 45, 4-(2(R)-(Hydroxy-methyl)-pyrrolidin-1-yl)-2-trifluoromethyl-benzonitrile] | 22.7 |
| CCCN(c1ccc(C#N)c(Cl)c1)C(C)C [Example 46, 2-Chloro-4-(isopropyl-propyl-amino)-benzonitrile] | 9.79 |
| CCN(CC)c1ccc(C#N)c(Cl)c1 [Example 47, 2-Chloro-4-(diethyl-amino)-benzonitrile] | 2.98 |
| CCN(c1ccc(C#N)c(Cl)c1)C(C)C [Example 48, 2-Chloro-4-(ethyl-isopropyl-amino)-benzonitrile] | 19.7 |
| CCCN(CCC)c1ccc(C#N)c(Cl)c1 [Example 49, 2-Chloro-4-(dipropyl-amino)-benzonitrile] | 8.33 |
| CC(C)N(C)c1ccc(C#N)c(C#N)c1 [Example 50, 4-(Isopropyl-methyl-amino)-phthalonitrile] | 8.23 |
| COC[C@H]1CCCN1c1ccc(C#N)c(C#N)c1 [Example 51, 4-(2-(R)-Methoxymethyl-pyrrolidin-1-yl)-phthalonitrile] | 12.4 |
